# Reference: ChEMBL document CHEMBL1148776, “Structure-based optimization of protein tyrosine phosphatase 1B inhibitors: from the active site to the second phosphotyrosine binding site” (J Med Chem, 2007)
# Columns and labels:
# Cytochrome P450 2C8 = biological target: T1, Cytochrome P450 2C8 (Homo sapiens, UniProt P10632); experiment: Inhibition of CYP2C8; format: ADME
# T1 sequence (P10632 whole entry): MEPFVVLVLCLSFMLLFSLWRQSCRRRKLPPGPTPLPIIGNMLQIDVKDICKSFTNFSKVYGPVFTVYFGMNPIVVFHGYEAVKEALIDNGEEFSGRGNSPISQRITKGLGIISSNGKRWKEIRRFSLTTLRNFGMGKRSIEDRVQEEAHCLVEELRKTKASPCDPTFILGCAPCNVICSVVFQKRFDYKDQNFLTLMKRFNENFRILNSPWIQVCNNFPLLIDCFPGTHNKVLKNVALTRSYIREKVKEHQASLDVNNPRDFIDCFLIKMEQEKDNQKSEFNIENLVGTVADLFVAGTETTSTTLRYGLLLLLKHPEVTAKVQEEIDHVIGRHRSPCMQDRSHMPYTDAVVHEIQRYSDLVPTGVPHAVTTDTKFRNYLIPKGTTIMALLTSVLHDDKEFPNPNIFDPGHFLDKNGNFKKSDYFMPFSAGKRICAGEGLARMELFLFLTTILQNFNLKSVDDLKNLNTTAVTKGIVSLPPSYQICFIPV
# Cytochrome P450 2C19 = Cytochrome P450 2C19 (Homo sapiens, UniProt P33261); experiment: Inhibition of CYP2C19; format: ADME
# Sequence of Cytochrome P450 2C19 (P33261 whole entry): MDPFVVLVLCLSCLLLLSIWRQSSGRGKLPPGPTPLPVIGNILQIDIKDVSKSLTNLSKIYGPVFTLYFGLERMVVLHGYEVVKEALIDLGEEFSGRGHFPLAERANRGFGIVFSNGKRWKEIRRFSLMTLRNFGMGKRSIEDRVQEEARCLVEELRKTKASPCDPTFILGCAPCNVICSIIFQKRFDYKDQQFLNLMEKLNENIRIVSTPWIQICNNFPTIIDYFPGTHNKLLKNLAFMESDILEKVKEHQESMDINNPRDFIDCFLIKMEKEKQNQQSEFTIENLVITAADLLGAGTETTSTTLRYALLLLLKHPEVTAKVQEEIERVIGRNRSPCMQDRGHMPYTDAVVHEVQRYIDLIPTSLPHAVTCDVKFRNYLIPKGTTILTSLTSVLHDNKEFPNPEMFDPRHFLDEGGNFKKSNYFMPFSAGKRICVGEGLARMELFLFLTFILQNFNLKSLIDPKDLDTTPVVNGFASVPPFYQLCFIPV
# Cytochrome P450 2A6 = biological target: T2, Cytochrome P450 2A6 (Homo sapiens, UniProt P11509); experiment: Inhibition of CYP2A6; format: ADME
# T2 sequence (P11509 whole entry): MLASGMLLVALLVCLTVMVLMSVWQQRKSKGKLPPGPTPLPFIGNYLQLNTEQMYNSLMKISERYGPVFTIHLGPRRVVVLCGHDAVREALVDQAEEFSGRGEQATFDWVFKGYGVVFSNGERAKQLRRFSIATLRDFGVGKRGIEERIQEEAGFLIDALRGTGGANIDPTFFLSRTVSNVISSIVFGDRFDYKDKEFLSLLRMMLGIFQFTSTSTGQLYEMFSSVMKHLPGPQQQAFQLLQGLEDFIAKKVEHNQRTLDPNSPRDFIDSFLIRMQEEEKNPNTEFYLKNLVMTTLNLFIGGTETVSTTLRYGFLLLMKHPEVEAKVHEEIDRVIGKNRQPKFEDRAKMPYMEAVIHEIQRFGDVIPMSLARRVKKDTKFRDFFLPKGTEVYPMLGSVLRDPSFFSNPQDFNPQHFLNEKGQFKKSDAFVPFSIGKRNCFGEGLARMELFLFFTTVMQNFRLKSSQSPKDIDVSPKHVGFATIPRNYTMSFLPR
# [1] = biological target: Receptor-type tyrosine-protein phosphatase F (Homo sapiens, UniProt P10586); experiment: Inhibition of human recombinant LAR
# Sequence of Receptor-type tyrosine-protein phosphatase F (P10586 whole entry): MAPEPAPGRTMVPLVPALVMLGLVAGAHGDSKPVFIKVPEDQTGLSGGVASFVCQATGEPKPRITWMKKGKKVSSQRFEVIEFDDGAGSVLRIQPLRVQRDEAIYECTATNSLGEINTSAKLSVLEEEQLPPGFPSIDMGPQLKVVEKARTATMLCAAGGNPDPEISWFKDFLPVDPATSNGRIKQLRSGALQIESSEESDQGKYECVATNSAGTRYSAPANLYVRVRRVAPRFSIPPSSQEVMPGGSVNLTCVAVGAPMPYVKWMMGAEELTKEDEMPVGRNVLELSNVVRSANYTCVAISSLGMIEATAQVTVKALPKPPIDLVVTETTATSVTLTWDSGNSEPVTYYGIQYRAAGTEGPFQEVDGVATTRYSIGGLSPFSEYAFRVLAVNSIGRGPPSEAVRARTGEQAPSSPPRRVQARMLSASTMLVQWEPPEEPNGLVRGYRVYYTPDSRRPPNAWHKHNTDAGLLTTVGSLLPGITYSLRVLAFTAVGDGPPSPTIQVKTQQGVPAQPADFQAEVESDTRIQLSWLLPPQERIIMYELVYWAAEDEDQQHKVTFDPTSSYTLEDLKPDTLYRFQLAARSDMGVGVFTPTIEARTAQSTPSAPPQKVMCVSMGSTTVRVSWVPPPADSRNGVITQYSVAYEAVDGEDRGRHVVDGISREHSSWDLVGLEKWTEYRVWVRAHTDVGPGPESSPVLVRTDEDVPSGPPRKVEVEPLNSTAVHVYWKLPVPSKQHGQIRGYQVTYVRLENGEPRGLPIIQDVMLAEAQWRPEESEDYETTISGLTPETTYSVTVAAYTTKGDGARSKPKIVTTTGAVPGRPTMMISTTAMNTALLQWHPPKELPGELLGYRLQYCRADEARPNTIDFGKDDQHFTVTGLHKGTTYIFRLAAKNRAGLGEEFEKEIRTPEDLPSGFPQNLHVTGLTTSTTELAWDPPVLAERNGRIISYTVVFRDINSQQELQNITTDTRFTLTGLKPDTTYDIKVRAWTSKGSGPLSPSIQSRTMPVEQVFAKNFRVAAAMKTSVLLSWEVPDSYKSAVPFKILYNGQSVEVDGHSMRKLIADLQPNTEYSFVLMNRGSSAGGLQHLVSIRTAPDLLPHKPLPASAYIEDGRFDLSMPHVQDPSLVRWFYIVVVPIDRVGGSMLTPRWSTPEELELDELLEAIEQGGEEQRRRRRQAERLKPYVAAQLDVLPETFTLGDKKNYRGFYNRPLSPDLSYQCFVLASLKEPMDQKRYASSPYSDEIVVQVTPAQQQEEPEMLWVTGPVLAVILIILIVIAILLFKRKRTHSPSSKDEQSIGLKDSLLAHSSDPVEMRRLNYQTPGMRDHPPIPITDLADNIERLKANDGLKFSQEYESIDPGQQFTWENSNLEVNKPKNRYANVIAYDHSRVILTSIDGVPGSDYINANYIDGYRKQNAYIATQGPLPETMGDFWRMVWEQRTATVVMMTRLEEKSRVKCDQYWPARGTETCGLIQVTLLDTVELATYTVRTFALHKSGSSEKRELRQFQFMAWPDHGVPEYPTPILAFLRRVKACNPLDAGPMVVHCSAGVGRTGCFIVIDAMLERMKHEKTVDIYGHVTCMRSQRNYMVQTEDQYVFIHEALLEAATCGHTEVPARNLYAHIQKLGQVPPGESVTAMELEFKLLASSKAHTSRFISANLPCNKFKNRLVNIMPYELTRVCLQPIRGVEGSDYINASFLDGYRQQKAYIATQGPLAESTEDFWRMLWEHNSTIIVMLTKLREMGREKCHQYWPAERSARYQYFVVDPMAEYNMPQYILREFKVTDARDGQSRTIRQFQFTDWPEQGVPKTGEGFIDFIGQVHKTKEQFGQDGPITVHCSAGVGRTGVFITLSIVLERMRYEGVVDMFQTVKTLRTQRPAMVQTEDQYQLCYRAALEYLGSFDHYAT
# Cytochrome P450 2C9 = Cytochrome P450 2C9 (Homo sapiens, UniProt P11712); experiment: Inhibition of CYP2C9; format: ADME
# Sequence of Cytochrome P450 2C9 (P11712 whole entry): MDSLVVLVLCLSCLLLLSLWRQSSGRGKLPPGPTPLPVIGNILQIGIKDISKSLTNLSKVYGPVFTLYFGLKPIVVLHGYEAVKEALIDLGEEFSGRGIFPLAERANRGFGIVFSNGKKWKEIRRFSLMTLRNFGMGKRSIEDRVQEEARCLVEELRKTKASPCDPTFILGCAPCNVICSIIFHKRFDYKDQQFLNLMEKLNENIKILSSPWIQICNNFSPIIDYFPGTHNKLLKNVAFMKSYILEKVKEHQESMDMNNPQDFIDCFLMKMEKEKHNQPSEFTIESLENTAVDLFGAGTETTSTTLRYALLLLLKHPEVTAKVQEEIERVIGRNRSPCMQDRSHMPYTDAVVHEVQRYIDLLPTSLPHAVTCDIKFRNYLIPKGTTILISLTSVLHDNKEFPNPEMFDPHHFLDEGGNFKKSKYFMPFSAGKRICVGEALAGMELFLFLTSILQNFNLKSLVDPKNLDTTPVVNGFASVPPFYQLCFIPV
# [2] = Permeability coefficient across human Caco-2 cells; format: ADME, cell-based; conditions: read-out: permeability
# [3] = Drug level in C57/B6 mouse liver at 10 mg/kg, ip after 1 hr; format: ADME, organism-based; parameters: dose 10 mg/kg, route intraperitoneal; conditions: read-out: Drug uptake
# [4] = Aqueous solubility at pH 7.4; format: physicochemical
# [5] = Drug level in C57/B6 mouse liver at 10 mg/kg, ip after 7 hrs; format: ADME, organism-based; parameters: dose 10 mg/kg, route intraperitoneal; conditions: read-out: Drug uptake
# Cytochrome P450 1A2 = biological target: T3, Cytochrome P450 1A2 (Homo sapiens, UniProt P05177); experiment: Inhibition of CYP1A2; format: ADME
# T3 sequence (P05177 whole entry): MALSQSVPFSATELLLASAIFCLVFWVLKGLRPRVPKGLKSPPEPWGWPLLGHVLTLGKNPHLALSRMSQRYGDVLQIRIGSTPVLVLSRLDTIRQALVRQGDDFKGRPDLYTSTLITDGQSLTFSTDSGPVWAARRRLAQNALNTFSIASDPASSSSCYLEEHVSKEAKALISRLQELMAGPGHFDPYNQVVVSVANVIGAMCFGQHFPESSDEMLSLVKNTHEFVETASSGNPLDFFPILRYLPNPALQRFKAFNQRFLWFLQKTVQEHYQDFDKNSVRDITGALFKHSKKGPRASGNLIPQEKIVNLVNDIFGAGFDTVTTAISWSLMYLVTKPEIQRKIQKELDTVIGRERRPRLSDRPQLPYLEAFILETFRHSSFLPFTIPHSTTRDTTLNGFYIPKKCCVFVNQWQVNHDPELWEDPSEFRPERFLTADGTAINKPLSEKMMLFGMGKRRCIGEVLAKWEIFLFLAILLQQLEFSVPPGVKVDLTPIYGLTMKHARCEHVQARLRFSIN
# [6] = Stability in mouse liver microsomes; format: ADME, Microsome
# Hepatocyte = experiment: Decrease in drug uptake in rat hepatocytes in presence of verapamil; format: ADME, cell-based; parameters: scale not given: the % may be the effect or the level left
# [7] = Drug level in C57/B6 mouse muscle at 10 mg/kg, ip after 7 hrs; format: ADME, organism-based, Muscle tissue; parameters: dose 10 mg/kg, route intraperitoneal; conditions: read-out: Drug uptake
# Cytochrome P450 2D6 = Cytochrome P450 2D6 (Homo sapiens, UniProt P10635); experiment: Inhibition of CYP2D6; format: ADME
# Sequence of Cytochrome P450 2D6 (P10635 whole entry): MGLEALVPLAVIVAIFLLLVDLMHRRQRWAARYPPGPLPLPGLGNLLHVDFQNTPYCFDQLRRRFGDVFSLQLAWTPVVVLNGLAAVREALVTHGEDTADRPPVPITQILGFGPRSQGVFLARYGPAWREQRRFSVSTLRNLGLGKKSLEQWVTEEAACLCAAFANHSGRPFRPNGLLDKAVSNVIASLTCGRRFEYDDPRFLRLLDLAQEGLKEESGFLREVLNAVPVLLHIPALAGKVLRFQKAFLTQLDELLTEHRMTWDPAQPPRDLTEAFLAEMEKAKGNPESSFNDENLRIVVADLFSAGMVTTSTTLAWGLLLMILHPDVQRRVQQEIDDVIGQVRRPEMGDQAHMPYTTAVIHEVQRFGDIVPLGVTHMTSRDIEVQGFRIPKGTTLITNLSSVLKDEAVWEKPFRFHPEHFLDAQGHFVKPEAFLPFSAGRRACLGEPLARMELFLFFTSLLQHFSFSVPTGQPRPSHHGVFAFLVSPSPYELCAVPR
# [8] = Cmax in C57/B6 mouse plasma at 10 mg/kg, ip after 1 hr; format: ADME, organism-based; parameters: dose 10 mg/kg, route intraperitoneal
# [9] = Stability in rat liver microsomes; format: ADME, Microsome
# [10] = biological target: T4, Receptor-type tyrosine-protein phosphatase C (Homo sapiens, UniProt P08575); experiment: Inhibition of human recombinant CD45
# T4 sequence (P08575 whole entry): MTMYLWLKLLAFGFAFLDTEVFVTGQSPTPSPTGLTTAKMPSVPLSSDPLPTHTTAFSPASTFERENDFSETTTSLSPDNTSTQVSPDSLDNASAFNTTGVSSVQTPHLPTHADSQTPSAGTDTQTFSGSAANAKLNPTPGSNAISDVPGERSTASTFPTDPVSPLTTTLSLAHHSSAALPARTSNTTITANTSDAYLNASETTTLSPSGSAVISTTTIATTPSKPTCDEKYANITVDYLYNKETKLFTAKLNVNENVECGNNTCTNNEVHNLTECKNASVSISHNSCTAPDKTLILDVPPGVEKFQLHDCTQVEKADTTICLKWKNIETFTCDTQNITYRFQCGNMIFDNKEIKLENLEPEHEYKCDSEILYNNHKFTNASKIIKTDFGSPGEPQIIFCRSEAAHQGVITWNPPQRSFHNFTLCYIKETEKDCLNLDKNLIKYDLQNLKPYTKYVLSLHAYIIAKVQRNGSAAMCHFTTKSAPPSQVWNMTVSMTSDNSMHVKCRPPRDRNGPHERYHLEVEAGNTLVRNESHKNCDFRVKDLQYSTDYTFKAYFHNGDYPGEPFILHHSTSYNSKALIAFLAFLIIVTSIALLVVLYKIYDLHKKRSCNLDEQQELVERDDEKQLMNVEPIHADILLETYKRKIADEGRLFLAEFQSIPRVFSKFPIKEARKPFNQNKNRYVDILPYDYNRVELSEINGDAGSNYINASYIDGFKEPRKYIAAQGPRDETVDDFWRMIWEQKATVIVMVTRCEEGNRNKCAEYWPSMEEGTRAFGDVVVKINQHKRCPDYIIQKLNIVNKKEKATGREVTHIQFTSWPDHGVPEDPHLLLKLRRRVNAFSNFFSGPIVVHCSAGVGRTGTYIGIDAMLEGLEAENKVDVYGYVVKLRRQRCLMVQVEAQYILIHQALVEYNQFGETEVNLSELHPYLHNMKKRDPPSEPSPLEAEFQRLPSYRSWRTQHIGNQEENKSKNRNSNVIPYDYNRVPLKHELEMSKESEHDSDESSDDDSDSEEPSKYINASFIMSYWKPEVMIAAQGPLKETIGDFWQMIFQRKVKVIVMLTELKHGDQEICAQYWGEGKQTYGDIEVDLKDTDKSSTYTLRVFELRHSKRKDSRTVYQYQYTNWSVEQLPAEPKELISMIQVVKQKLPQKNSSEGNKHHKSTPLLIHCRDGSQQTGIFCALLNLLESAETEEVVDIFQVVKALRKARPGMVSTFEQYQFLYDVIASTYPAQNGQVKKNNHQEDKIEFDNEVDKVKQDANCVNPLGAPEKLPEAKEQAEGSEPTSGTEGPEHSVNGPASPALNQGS
# [11] = Drug level in C57/B6 mouse plasma at 10 mg/kg, ip after 7 hrs; format: ADME, organism-based; parameters: dose 10 mg/kg, route intraperitoneal; conditions: read-out: Drug uptake
# [12] = Half life in Sprague-Dawley rat at 2 mg/kg, iv; format: ADME, organism-based; parameters: dose 2 mg/kg, route intravenous; conditions: in vivo
# Cytochrome P450 3A4 = Cytochrome P450 3A4 (Homo sapiens, UniProt P08684); experiment: Inhibition of CYP3A4; format: ADME
# Sequence of Cytochrome P450 3A4 (P08684 whole entry): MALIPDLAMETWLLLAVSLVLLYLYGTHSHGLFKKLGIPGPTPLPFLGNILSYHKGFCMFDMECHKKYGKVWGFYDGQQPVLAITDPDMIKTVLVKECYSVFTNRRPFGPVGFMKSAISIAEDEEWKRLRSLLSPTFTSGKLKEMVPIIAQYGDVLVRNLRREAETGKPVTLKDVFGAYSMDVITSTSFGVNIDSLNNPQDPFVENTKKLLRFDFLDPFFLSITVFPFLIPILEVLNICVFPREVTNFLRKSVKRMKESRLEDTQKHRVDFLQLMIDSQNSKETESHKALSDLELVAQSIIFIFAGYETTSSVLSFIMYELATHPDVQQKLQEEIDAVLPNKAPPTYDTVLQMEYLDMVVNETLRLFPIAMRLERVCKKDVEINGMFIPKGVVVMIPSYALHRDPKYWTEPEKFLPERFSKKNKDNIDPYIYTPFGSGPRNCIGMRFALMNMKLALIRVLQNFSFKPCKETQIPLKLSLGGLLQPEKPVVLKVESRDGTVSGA
# [13] = Plasma clearance in Sprague-Dawley rat at 2 mg/kg, iv; format: ADME, organism-based; parameters: dose 2 mg/kg, route intravenous
# [14] = Stability in human liver microsomes; format: ADME, Microsome
# [15] = Drug level in C57/B6 mouse muscle at 10 mg/kg, ip after 1 hr; format: ADME, organism-based, Muscle tissue; parameters: dose 10 mg/kg, route intraperitoneal; conditions: read-out: Drug uptake
smiles,measurement,setting,value
O=C(O)COc1c(C(=O)O)sc(-c2cccc(NC3CCN(S(=O)(=O)Cc4ccccc4)CC3)c2)c1Br,IC50,Cytochrome P450 2C8,> 500 µM
same,IC50,Cytochrome P450 2C19,> 500 µM
same,IC50,Cytochrome P450 2A6,> 500 µM
same,Ki,[1],> 500 µM
same,IC50,Cytochrome P450 2C9,40 µM
same,Papp,[2],< 1 ×10⁻⁶ cm/s
same,concentration at 1 h,[3],6900 nM
same,solubility,[4],> 100 µg/mL
same,concentration at 7 h,[5],170 nM
same,IC50,Cytochrome P450 1A2,> 500 µM
same,half-life,[6],> 1 h
same,Activity,Hepatocyte,70%
same,concentration at 7 h,[7],260 nM
same,IC50,Cytochrome P450 2D6,> 500 µM
same,Cmax,[8],15200 nM
same,half-life,[9],0.767 h
same,Ki,[10],77 µM
same,concentration at 7 h,[11],370 nM
same,half-life,[12],10 h
same,IC50,Cytochrome P450 3A4,> 500 µM
same,clearance,[13],7 mL/min/kg
same,half-life,[14],> 1 h
same,concentration at 1 h,[15],3500 nM
